Measurements from patent publication US10178866B2, “N-halamine containing fibrous compositions and uses thereof” (priority 2014, dated 2019).
Values after ≈ are worked out from the molar mass of the structure shown.

Legend:
[1] = storage (shelf-life) stability of oxidative chlorine on impregnated fabrics, iodometric/thiosulfate titration; type: physicochemical; details: for Chlorine loading, dark storage / Chlorine loading, fluorescent light: 22 g/m^2 fabric, 22° C.
Protocol: A modified iodometric/thiosulfate titration procedure was used to determine the active chlorine content on the fabrics impregnated with compound I (see, for example, Worley et al., “Novel N-halamine Siloxane Monomers and Polymers for Preparing Biocidal Coatings,” Surf Coat. Int., Part B, 2005; 88:93, herein incorporated by reference in its entirety). Cl^+% was calculated by the equation given below, where Cl^+% is the weight percent of the oxidative chlorine, N and V are
[formula] the normality (equiv/L) and volume (L) of the Na2S2O3 (titrant), respectively, and W is the weight of the polypropylene fabric in grams.
Storage or shelf-life stability of the impregnated 22 g/m^2 fabrics was evaluated in the instant example. Fabric samples were stored in a cabinet (e.g., a dark environment) without exposure to fluorescent light and on the laboratory bench (e.g., under fluorescent light) at room temperature. The stability of the chlorine content over time was measured for 24 weeks. The stabilities of the fabrics impregnated with compound I with a basis weight of 22 g/m^2 were determined at 22° C. by measuring the amount of remaining chlorine on the fabrics by using the standard iodometric/thiosulfate titration procedure.

solubility = type: physicochemical; details: 22° C.
Source text: The precursor 2,2,5,5-tetramethyl-4-imidazolidinone can be prepared according to the method outlined in Tsao or in Worley based upon oxidation of the corresponding thione with hydrogen peroxide in basic solution. The thione can be prepared by the method of Christian (see “4-imidazolidinethiones,” J. Org. Chem., 1957; 22:396), which entails reaction of sodium cyanide, ammonium chloride, ammonium sulfide, and acetone in aqueous solution. […] Compound I in its pure form contains 20.1 percent by weight oxidative chlorine. […] However, the compound is much more soluble in ethyl or isopropyl alcohol, such that a solution greater than 5000 mg/L oxidative chlorine can easily be obtained.

[2] = system: Staphylococcus aureus ATCC 6538; assay: sandwich contact test, polypropylene nonwoven face-piece material; type: cell-based; details: inoculum 6.26 log
Protocol: (§1) Compound I (1-chloro-2,2,5,5-tetramethyl-imidazolindinone) at 1 wt %) was dissolved in ethyl alcohol solution at room temperature, and then 300 cm^2 pieces of polypropylene nonwoven fabrics were soaked in the solution for 10 minutes. The fabrics were then padded through a laboratory wringer (Birch Brothers Southern, Waxhaw, N.C., U.S.A.) at low pressure settings. This procedure was followed by drying the fabrics at room temperature for 24 hours. The control fabrics were untreated 22 g/m^2 and 50 g/m^2 polypropylene nonwovens.
(§2) Two types of tests were conducted in order to determine the biocidal efficacy of the face mask embodiments. Staphylococcus aureus (S. aureus, ATCC 6538) was used as a Gram-positive bacterium and Escherichia coli(E. coli O157:H7, ATCC 43895) was used as a Gram-negative bacterium in order to challenge the treated (impregnated with compound I) and non-treated (control) fabrics.
(§3) In the first method, a “sandwich test” was used (see Worley et al., “Novel N-halamine Siloxane Monomers and Polymers for Preparing Biocidal Coatings,” Surf Coat. Int., Part B, 2005; 88:93). In this procedure, bacteria were suspended in 100 μM phosphate buffer (pH 7) to produce a suspension of known concentration of bacteria (colony forming units, CFU/mL). Then, an aliquot of 25 μL of this suspension was placed in the center of a 2.54 cm square swatch, and a second identical swatch was placed on top. Both swatches were covered by a sterile weight to ensure sufficient contact with the bacteria. After predetermined contact times, samples were quenched by 5.0 mL of sterile 0.02 N sodium thiosulfate solution to neutralize the oxidative chlorine and thus terminate the disinfection action. Samples were vortexed for 2 minutes, and then serial dilutions were prepared using pH 7, 100 μM phosphate buffer and plated on Trypticase soy agar plates. After incubating the plates at 37° C. for 24 hours, bacterial colonies were counted for the biocidal efficacy analysis. For each contact time a single fabric swatch sandwich was vortexed in a quenching solution to wash the bacteria into a suspension which was immediately plated into duplicate serial dilutions followed by incubation and counting the viable colonies of bacteria. All experiments were performed at least twice (on different days) using different bacterial inocula.
(§4) Antimicrobial efficacy of the mask materials was analyzed by the sandwich contact test method. The antimicrobial efficacies of the treated (impregnated with compound I) and non-treated (control) swatches were evaluated by challenging both types of fabrics against S. aureus and E. coli O157:H7 where the bacteria inoculum population was 1.80×10^6 CFU and 1.27×10^6 CFU, respectively. In Table 2, antimicrobial results are summarized at different contact time intervals.

[3] = system: Escherichia coli O157:H7 ATCC 43895; assay: as above; type: cell-based; details: inoculum 6.10 log
Protocol: as §1, §2, §3, §4

[4] = 22 g/m^2 fabric, Cl^+ % = 0.52, contact time 5 min
[5] = 22 g/m^2 fabric, Cl^+ % = 0.52, contact time 10 min
[6] = 22 g/m^2 fabric, Cl^+ % = 0.52, contact time 15 min
[7] = 22 g/m^2 fabric, Cl^+ % = 0.52, contact time 30 min
[8] = 50 g/m^2 fabric, Cl^+ % = 0.52, contact time 5 min
[9] = 50 g/m^2 fabric, Cl^+ % = 0.52, contact time 10 min
[10] = 50 g/m^2 fabric, Cl^+ % = 0.52, contact time 15 min
[11] = 50 g/m^2 fabric, Cl^+ % = 0.52, contact time 30 min

CC1(C)NC(=O)C(C)(C)N1Cl [Compound I, 1-chloro-2,2,5,5-tetramethyl-4-imidazolidinone]
Chlorine loading, dark storage ([1]; 2 weeks): 0.37 wt % Cl^+
Chlorine loading, fluorescent light ([1]; 2 weeks): 0.05 wt % Cl^+
Chlorine loading, dark storage ([1]; 3 weeks): 0.40 wt % Cl^+
Chlorine loading, fluorescent light ([1]; 3 weeks): 0 wt % Cl^+
Chlorine loading, dark storage ([1]; 5 weeks): 0.37 wt % Cl^+
Chlorine loading, fluorescent light ([1]; 5 weeks): 0 wt % Cl^+
Chlorine loading, dark storage ([1]; 8 weeks): 0.40 wt % Cl^+
Chlorine loading, fluorescent light ([1]; 8 weeks): 0 wt % Cl^+
Chlorine loading, dark storage ([1]; 12 weeks): 0.42 wt % Cl^+
Chlorine loading, fluorescent light ([1]; 12 weeks): 0 wt % Cl^+
Chlorine loading, dark storage ([1]; 24 weeks): 0.41 wt % Cl^+
Chlorine loading, fluorescent light ([1]; 24 weeks): 0 wt % Cl^+
Chlorine loading, dark storage ([1]; Initial): 0.36 wt % Cl^+
Chlorine loading, fluorescent light ([1]; Initial): 0.40 wt % Cl^+
chlorine loss on storage ([1]; fabrics exposed to fluorescent light, after 3 weeks of exposure): the remaining chlorine was lost
chlorine loss on storage ([1]; fabrics exposed to fluorescent light, within a 2 week time period): Almost all of the initial chlorine loading was lost
chlorine loss on storage ([1]; fabrics stored in dark environmental conditions, 6 month time period): no significant chlorine loss
solubility in water (solubility): 1930 µg/mL (≈ 10.9 mM)
weight percent of oxidative chlorine under saturated conditions (solubility; water): 0.0388 weight percent
Bacterial reduction (log) S. aureus [2, 4]: 4.13 log
Bacterial reduction (log) S. aureus [2, 5]: 6.26 log
Bacterial reduction (log) S. aureus [2, 6]: 6.26 log
Bacterial reduction (log) S. aureus [2, 7]: 6.26 log
Bacterial reduction (log) S. aureus [2, 8]: 6.26 log
Bacterial reduction (log) S. aureus [2, 9]: 6.26 log
Bacterial reduction (log) S. aureus [2, 10]: 6.26 log
Bacterial reduction (log) S. aureus [2, 11]: 6.26 log
Bacterial reduction (log) E. coli [3, 4]: 3.68 log
Bacterial reduction (log) E. coli [3, 5]: 6.10 log
Bacterial reduction (log) E. coli [3, 6]: 6.10 log
Bacterial reduction (log) E. coli [3, 7]: 6.10 log
Bacterial reduction (log) E. coli [3, 8]: 3.80 log
Bacterial reduction (log) E. coli [3, 9]: 6.10 log
Bacterial reduction (log) E. coli [3, 10]: 6.10 log
Bacterial reduction (log) E. coli [3, 11]: 6.10 log
